Measurements as given in ChEMBL document CHEMBL6096628, “Discovery of a Highly Potent and Selective BRD9 PROTAC Degrader Based on E3 Binder Investigation for the Treatment of Hematological Tumors” (J Med Chem, 2024).
pIC50: −log10 of the molar value. Calls of active or inactive are those of the source. No cut-off for these calls is given here.

Legend:
[1] = Cytotoxicity against PBMC cells (unknown origin) assessed as inhibition of cell growth at 5000 nM incubated for 7 days by MTS reagent based assay; format: toxicity; settings: 168 h, 5 µM, time 7 day
[2] = Toxicity in Balb/c nude mouse xenografted with human MV4-11 cells assessed as weight loss at 20 mg/kg, ip administered once a day for 20 days; format: organism-based; settings: in vivo, 480 h, time 20 day
[3] = test system: MV4-11; assay: Upregulation of C-myc mRNA expression level in human MV4-11 cells at 0.1 to 10 nM measured after 24 to 48 hrs by qPCR analysis; format: functional, cell-based; settings: dose 0.1-10 nM, time 24-48 hrs
[4] = test system: OCI-Ly10; assay: Antitumor activity against human OCI-Ly10 cells xenografted in Balb/c nude mouse assessed as tumor mass at 30 mg/kg, po administered once daily for 18 days (reference value: 1.12 +/- 0.44 g); format: functional; settings: time 18 day
[5] = test system: MV4-11; assay: Downregulation of beta-catenin mRNA expression level in human MV4-11 cells at 0.1 to 10 nM measured after 24 to 48 hrs by Western blot analysis; format: functional, cell-based; settings: dose 0.1-10 nM, time 24-48 hrs
[6] = test system: MV4-11; assay: Induction of apoptosis in human MV4-11 cells assessed as necrotic cells at 0.01 nM incubated for 48 hrs by Annexin V-FITC/PI staining based flow cytometric analysis (reference value: 0.07 %); format: functional
[7] = test system: MV4-11; assay: Antiproliferative activity against CRBN knockout human MV4-11 cells assessed as inhibition of cell growth incubated for 7 days by MTS reagent based assay; format: functional; settings: MV4-11, 168 h
[8] = test system: MV4-11; assay: Induction of BRD4 degradation in human MV4-11 cells at 100 nM by Western blot analysis; format: cell-based
[9] = molecular target: T1, Protein cereblon/Bromodomain-containing protein 9 (Homo sapiens, UniProt Q9H8M2+Q96SW2); assay: PROTAC activity at CRBN/BRD9 in human MV4-11 cells assessed as induction of BRD9 degradation at 0.33 nM in presence of N-(1,1-dioxidotetrahydro-2H-thiopyran-4-yl)-5-ethyl-4-oxo-7-(3-(trifluoromethyl)phenyl)-4,5-dihydrothieno[3,2-c]pyridine-2-carboximidamide by Western blot analysis; format: cell-based
T1 sequence (Q96SW2 whole entry, looked up): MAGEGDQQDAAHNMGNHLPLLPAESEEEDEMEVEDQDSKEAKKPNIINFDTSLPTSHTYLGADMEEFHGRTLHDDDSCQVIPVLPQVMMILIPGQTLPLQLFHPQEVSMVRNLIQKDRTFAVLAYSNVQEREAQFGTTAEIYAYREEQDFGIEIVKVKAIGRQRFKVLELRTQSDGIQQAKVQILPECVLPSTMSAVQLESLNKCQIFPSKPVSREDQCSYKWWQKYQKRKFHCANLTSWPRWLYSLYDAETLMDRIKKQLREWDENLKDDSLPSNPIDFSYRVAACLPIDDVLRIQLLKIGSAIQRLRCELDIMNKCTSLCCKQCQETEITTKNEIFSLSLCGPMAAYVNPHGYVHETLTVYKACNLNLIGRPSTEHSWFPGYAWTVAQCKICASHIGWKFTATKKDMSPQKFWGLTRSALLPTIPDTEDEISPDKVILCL
T1 sequence (Q9H8M2 whole entry, looked up): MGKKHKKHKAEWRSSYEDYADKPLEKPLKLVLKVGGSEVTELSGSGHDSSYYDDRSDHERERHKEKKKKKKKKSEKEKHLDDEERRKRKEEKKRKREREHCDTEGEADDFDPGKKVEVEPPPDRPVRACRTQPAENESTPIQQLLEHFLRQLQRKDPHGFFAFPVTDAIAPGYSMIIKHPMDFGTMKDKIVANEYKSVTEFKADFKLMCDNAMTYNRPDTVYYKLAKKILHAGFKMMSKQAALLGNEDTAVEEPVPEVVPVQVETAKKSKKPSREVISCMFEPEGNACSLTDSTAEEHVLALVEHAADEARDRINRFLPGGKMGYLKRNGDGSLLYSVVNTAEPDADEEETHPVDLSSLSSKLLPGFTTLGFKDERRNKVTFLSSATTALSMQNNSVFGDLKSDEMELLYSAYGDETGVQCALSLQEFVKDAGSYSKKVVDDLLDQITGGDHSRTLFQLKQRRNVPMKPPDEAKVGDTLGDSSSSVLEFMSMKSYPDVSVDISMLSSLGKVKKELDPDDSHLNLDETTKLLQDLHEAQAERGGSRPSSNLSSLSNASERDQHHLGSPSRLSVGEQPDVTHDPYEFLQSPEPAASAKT

[10] = test system: MV4-11; assay: Downregulation of AXIN2 mRNA expression level in human MV4-11 cells at 0.1 to 10 nM measured after 24 to 48 hrs by qPCR analysis; format: functional, cell-based; settings: dose 0.1-10 nM, time 24-48 hrs
[11] = test system: MV4-11; assay: Induction of IKZF1 degradation in human MV4-11 cells at 1 to 100 nM by Western blot analysis; format: cell-based; settings: dose 1-100 nM
[12] = Cmax in ICR mouse at 20 mg/kg, IG administered via gavage and measured after 24 hrs by LC-MS analysis; format: ADME, organism-based; settings: in vivo, po
[13] = test system: MV4-11; assay: Antitumor activity against human MV4-11 cells xenografted in Balb/c nude mouse assessed as relative tumor volume at 20 mg/kg, ip administered once daily for 20 days (reference value: 7.85 +/- 3.69); format: functional; settings: time 20 day
[14] = test system: MV4-11; assay: Induction of apoptosis in human MV4-11 cells assessed as early apoptotic cells at 10 nM incubated for 48 hrs by Annexin V-FITC/PI staining based flow cytometric analysis (reference value: 4.22 %); format: functional
[15] = test system: Mus musculus; assay: Upregulation of BRD4 expression in Balb/c nude mouse tumor xenografted with human MV4-11 cells at 20 mg/kg, ip administered once daily for 20 days by Western blot analysis; format: functional, organism-based; settings: time 20.0 day
[16] = test system: MV4-11; assay: Induction of apoptosis in human MV4-11 cells assessed as necrotic cells at 10 nM incubated for 48 hrs by Annexin V-FITC/PI staining based flow cytometric analysis (reference value: 0.07 %); format: functional
[17] = test system: Kasumi 1; assay: Antiproliferative activity against human Kasumi 1 cells assessed as inhibition of cell growth incubated for 7 days by MTS reagent based assay; format: functional; settings: Kasumi 1, 168 h
[18] = test system: MV4-11; assay: Induction of apoptosis in human MV4-11 cells assessed as viable cells at 0.1 nM incubated for 48 hrs by Annexin V-FITC/PI staining based flow cytometric analysis (reference value: 94.80 %); format: functional; settings: read-out: Activity
[19] = test system: OCI-Ly10; assay: Antiproliferative activity against human OCI-Ly10 cells assessed as inhibition of cell growth incubated for 7 days by MTS reagent based assay; format: functional; settings: OCI-Ly10, 168 h
[20] = AUC (0 to t) in ICR mouse at 20 mg/kg, IG administered via gavage and measured after 24 hrs by LC-MS analysis; format: ADME, organism-based; settings: in vivo, po
[21] = test system: MV4-11; assay: Induction of apoptosis in human MV4-11 cells assessed as late apoptotic cells at 1 nM incubated for 48 hrs by Annexin V-FITC/PI staining based flow cytometric analysis (reference value: 0.91 %); format: functional
[22] = test system: MV4-11; assay: Downregulation of TTK protein expression in human MV4-11 cells by proteomic analysis; format: functional, cell-based
[23] = test system: MV4-11; assay: Induction of apoptosis in human MV4-11 cells assessed as late apoptotic cells at 0.1 nM incubated for 48 hrs by Annexin V-FITC/PI staining based flow cytometric analysis (reference value: 0.91 %); format: functional
[24] = test system: MV4-11; assay: Induction of apoptosis in human MV4-11 cells assessed as viable cells at 0.01 nM incubated for 48 hrs by Annexin V-FITC/PI staining based flow cytometric analysis (reference value: 94.80 %); format: functional; settings: read-out: Activity
[25] = test system: OCI-Ly10; assay: Antitumor activity against human OCI-Ly10 cells xenografted in Balb/c nude mouse assessed as relative tumor volume at 30 mg/kg, po administered once daily for 18 days (reference value: 9.07 +/- 4.66); format: functional; settings: time 18 day
[26] = test system: Mus musculus; assay: Upregulation of BRD7 expression in Balb/c nude mouse tumor xenografted with human MV4-11 cells at 20 mg/kg, ip administered once daily for 20 days by Western blot analysis; format: functional, organism-based; settings: time 20.0 day
[27] = test system: MV4-11; assay: Downregulation of beta-catenin expression level in human MV4-11 cells at 0.1 to 10 nM measured after 24 to 48 hrs by Western blot analysis; format: functional, cell-based; settings: dose 0.1-10 nM, time 24-48 hrs
[28] = Toxicity in Balb/c nude mouse xenografted with human MV4-11 cells assessed as behavioral abnormalities at 20 mg/kg, ip administered once a day for 20 days; format: organism-based; settings: in vivo, 480 h, time 20 day
[29] = molecular target: T1, Protein cereblon/Bromodomain-containing protein 9; assay: PROTAC activity at CRBN/BRD9 in human MV4-11 cells assessed as induction of BRD9 degradation at 10 nM by Western blot analysis relative to control; format: cell-based
[30] = test system: MV4-11; assay: Induction of apoptosis in human MV4-11 cells assessed as late apoptotic cells at 10 nM incubated for 48 hrs by Annexin V-FITC/PI staining based flow cytometric analysis (reference value: 0.91 %); format: functional
[31] = test system: MV4-11; assay: Induction of apoptosis in human MV4-11 cells assessed as late apoptotic cells at 0.01 nM incubated for 48 hrs by Annexin V-FITC/PI staining based flow cytometric analysis (reference value: 0.91 %); format: functional
[32] = test system: MV4-11; assay: Antitumor activity against human MV4-11 cells xenografted in Balb/c nude mouse assessed as tumor weight at 20 mg/kg, ip administered once daily for 20 days (reference value: 1.30 +/- 0.51 g); format: functional; settings: time 20 day
[33] = test system: SU-DHL-6; assay: Antiproliferative activity against human SU-DHL-6 cells assessed as inhibition of cell growth incubated for 7 days by MTS reagent based assay; format: functional; settings: SU-DHL-6, 168 h
[34] = test system: OCI-Ly10; assay: Antitumor activity against human OCI-Ly10 cells xenografted in Balb/c nude mouse assessed as tumor volume at 30 mg/kg, po administered once daily for 18 days (reference value: 561 +/- 370 mm^3); format: functional; settings: time 18 day

COc1cc(-c2cn(C)c(=O)c3ccccc23)cc(OC)c1CN1CCC(CN2CCC(c3ccc4c5c(cccc35)C(=O)N4C3CCC(=O)NC3=O)CC2)CC1 (centres undefined)
Activity [1]: Toxic | Activity [2]: Non-toxic | Activity [3]: Active | Activity [4]: 0.56 g | Activity [5]: Active | Activity [6]: 0.03% | pIC50 [7]: < 5.30 | Activity [8]: inactive | Activity [9]: inactive | Activity [10]: Active | Activity [11]: Active; Moderate Degradation Observed | Cmax [12]: 127 ng/mL | Activity [13]: 4.99 | Activity [14]: 16.97% | Activity [15]: Active | Activity [16]: 0.21% | pIC50 [17]: 8.95 | viability at 0.0001 µM [18]: 87.4% | pIC50 [19]: 8.98 | AUC(0-t) at 24 h [20]: 1300 ng·h/mL | Activity [21]: 5.74% | Activity [22]: Active | Activity [23]: 3.37% | viability at 10 pM [24]: 92% | Activity [25]: 4 | Activity [26]: Active | Activity [27]: Active | Activity [28]: Non-toxic | Activity [29]: 98.5% | Activity [30]: 8.01% | Activity [31]: 1.63% | Activity [32]: 0.9 g | pIC50 [33]: 6.43 | Activity [34]: 309 mm3
